Like-named read-outs stand apart in the source and are kept apart here.
Experiments:
[1] = target: 5-HT6 (Homo sapiens, UniProt P50406)
Procedure: (§1) NMDA, 5-HT6 and tachykinin NK1 receptors along with the dopamine transporter (DAT), norepinephrine transporter (NET) and serotonin transporter (SERT). The specific ligand binding to the receptors was defined as the difference between the total binding and the nonspecific binding determined in the presence of an excess of unlabeled ligand. IC50 values were determined by a non-linear, least squares regression analysis using MathIQ™ (ID Business Solutions Ltd., UK). […] Hill coefficient (nH), defining the slope of the competitive binding curve, was calculated using MathIQ™.

[2] = target: Adrenergic α2A (Homo sapiens, UniProt P08913)
Procedure: as §1

[3] = target: Adrenergic α2C (Homo sapiens, UniProt P18825)
Procedure: as §1

[4] = target: Dopamine D2 (Homo sapiens, UniProt P14416)
Procedure: as §1

[5] = target: Dopamine D3 (Homo sapiens, UniProt P35462)
Procedure: as §1

[6] = target: Dopamine transporter (DAT) (Homo sapiens, UniProt Q01959)
Procedure: as §1

[7] = target: Histamine H3 (Homo sapiens, UniProt Q9Y5N1)
Procedure: as §1

[8] = target: Muscarinic M2 (Homo sapiens, UniProt P08172)
Procedure: as §1

[9] = tested on: NMDAR
Procedure: as §1

[10] = target: Norepinephrine transporter (NET) (Homo sapiens, UniProt P23975)
Procedure: as §1

[11] = target: Serotonin 5-HT1A (Homo sapiens, UniProt P08908)
Procedure: as §1

[12] = target: Serotonin 5-HT2A (Homo sapiens, UniProt P28223)
Procedure: as §1

[13] = target: Serotonin 5-HT7 (Homo sapiens, UniProt P34969)
Procedure: as §1

[14] = target: Serotonin transporter (SERT) (Homo sapiens, UniProt P31645)
Procedure: as §1

[15] = target: Sigma-1 (σ1R) (Homo sapiens, UniProt Q99720)
Procedure: as §1

[16] = target: Sigma-2 (σ2R) (Homo sapiens, UniProt Q5BJF2)
Procedure: as §1

[17] = target: Tachykinin NK1 (Homo sapiens, UniProt P25103)
Procedure: as §1

[18] = tested on: adrenergic alpha-1; settings: in the micromolar range
Procedure: as §1

[19] = tested on: D2R; settings: for % D2R occupancy: NHP, based on 11C-raclopride PET
Source text: NHP σ1R occupancy data are extrapolated from in vitro binding investigations with 3H-fluspidine, known and specific σ1R tracer, against human σ1R.

[20] = target: dopamine-2 receptor (D2R) (Homo sapiens, UniProt P14416); settings: 90 mg
Source text: (§2) The study consisted of a screening period of up to 8 weeks prior to first dosing of tracer, including a Ti three-dimensional magnetization-prepared rapid acquisition gradient echo (MPRAGE 3D) magnetic resonance imaging (MRI) scan (visit 1), a study period of up to 4 weeks (including visits 2 and 3), and a follow-up visit (visit 4). […] Each dose cohort comprised up to 4 subjects. Although every subject of each dose cohort was expected to receive the same dose, it was also possible to change the dose level within a cohort due to the adaptive design of the study.

[21] = target: sigma-1 receptor (S1R) (Homo sapiens, UniProt Q99720)
Source text: as §2

[22] = tested on: human subject afflicted with LID; settings: greater than 100 mg/day oral, add-on to levodopa
Source text: The therapy provides efficacy in treating the patient without undue adverse side effects or affecting the safety of the treatment: […]

[23] = target: T1, D2R (Homo sapiens, UniProt P14416); settings: human 67.5 mg bid; based on human PET data and PK profile
[24] = tested on: human subject afflicted with LID; settings: 45, 90, 135 or 180 mg/day oral, add-on to amantadine
[25] = tested on: human subject afflicted with a DIMD; settings: 45, 90, 135 or 180 mg/day oral, add-on
[26] = target: T1, D2R; experiment: in vivo; settings: read-out: % D2R occupancy
[27] = tested on: 6-OHDA-lesioned rat; settings: 25 μmole/kg (8 mg/kg); cited from earlier work
[28] = tested on: patients with Huntington's Disease (HD); settings: 45 mg twice daily (90 mg/day); cited from earlier work
[29] = tested on: HD patients; settings: cited from earlier work; for TMS change from baseline vs placebo: HD stage 1 (baseline TFC≥11), post hoc

T1 sequence (P14416 whole entry): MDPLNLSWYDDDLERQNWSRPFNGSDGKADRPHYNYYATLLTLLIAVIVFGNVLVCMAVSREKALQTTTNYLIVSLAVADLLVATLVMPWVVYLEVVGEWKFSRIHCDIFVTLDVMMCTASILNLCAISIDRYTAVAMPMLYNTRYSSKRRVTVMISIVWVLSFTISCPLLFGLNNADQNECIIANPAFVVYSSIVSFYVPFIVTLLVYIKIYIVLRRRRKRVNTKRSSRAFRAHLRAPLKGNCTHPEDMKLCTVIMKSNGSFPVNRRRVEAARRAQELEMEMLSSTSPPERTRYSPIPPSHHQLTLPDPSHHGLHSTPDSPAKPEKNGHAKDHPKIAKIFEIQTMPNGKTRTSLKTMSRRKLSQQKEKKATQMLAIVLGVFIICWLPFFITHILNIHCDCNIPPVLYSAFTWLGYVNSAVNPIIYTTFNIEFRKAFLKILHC
Sequence of sigma-1 receptor (S1R) (Q99720 whole entry): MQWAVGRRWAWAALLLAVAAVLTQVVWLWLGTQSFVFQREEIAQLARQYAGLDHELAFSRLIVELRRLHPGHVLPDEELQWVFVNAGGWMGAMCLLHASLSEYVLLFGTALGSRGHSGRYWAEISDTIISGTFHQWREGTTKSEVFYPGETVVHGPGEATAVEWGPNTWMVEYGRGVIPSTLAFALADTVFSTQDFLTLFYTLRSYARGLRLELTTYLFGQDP
Sequence of Dopamine D2 (P14416 whole entry): as the sequence (P14416 whole entry) above
Sequence of Sigma-1 (σ1R) (Q99720 whole entry, species assumed): as the sequence (Q99720 whole entry) above
Sequence of Serotonin 5-HT2A (P28223 whole entry): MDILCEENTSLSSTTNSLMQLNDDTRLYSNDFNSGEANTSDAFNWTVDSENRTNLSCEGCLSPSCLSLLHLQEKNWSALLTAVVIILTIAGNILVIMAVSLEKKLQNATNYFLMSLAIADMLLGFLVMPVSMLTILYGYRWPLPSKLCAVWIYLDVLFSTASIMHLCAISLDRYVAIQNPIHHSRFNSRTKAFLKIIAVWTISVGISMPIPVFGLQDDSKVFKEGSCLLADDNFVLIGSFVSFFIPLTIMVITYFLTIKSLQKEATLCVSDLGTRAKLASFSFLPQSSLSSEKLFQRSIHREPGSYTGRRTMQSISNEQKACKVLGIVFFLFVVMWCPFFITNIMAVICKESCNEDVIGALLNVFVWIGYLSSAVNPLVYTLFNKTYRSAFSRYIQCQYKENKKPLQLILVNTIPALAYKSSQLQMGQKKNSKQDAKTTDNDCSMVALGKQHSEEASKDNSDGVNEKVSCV
Sequence of Dopamine D3 (P35462 whole entry): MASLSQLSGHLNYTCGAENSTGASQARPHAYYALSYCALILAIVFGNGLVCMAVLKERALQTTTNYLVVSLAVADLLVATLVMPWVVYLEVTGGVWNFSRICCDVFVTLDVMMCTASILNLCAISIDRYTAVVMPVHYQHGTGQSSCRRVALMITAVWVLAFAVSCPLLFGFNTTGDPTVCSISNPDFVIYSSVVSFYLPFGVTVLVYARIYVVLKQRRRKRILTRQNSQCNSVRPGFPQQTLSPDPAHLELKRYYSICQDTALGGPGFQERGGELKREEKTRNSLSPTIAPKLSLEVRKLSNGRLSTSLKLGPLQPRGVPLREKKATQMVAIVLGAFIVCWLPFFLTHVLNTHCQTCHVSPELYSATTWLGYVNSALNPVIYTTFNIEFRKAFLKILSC
Sequence of Adrenergic α2C (P18825 whole entry): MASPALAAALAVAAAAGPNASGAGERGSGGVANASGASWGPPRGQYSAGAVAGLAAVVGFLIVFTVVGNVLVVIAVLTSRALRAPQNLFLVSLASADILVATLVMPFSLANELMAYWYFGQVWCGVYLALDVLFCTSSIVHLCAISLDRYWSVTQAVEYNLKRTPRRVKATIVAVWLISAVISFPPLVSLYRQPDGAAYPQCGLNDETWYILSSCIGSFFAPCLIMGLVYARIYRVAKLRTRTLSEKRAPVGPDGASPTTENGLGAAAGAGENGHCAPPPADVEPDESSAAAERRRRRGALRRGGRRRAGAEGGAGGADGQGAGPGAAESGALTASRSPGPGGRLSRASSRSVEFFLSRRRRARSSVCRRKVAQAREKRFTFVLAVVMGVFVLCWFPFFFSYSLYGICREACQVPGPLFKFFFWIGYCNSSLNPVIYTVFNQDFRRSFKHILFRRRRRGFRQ
Sequence of Serotonin 5-HT7 (P34969 whole entry): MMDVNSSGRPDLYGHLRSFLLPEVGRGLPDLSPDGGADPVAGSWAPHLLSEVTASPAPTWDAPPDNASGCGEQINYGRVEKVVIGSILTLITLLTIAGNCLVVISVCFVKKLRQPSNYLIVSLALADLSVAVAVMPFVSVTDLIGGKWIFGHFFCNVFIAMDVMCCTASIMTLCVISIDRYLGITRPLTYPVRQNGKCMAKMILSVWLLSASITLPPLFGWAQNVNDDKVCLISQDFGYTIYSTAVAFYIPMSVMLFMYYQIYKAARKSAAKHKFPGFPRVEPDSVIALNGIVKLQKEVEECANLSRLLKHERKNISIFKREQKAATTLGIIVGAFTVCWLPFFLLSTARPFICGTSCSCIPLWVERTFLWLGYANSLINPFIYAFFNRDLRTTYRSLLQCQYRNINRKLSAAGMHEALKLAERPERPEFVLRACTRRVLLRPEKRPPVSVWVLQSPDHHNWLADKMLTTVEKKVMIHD
Sequence of Norepinephrine transporter (NET) (P23975 whole entry, species assumed): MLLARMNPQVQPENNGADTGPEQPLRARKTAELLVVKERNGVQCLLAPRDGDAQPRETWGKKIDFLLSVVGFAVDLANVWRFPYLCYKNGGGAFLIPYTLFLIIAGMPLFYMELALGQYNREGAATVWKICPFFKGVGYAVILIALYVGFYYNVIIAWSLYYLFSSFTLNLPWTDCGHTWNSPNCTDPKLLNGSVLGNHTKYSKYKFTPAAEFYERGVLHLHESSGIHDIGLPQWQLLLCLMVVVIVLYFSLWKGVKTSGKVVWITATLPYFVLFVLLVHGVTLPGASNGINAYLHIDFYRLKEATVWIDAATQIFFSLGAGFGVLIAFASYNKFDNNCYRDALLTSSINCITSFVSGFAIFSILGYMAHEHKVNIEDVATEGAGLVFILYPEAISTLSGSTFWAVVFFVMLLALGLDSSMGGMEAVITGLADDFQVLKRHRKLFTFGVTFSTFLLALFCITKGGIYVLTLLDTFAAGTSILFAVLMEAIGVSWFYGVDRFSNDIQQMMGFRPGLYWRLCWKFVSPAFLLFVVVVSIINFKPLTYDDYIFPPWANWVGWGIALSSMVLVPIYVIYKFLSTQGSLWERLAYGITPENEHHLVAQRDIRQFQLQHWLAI
Sequence of Dopamine transporter (DAT) (Q01959 whole entry, species assumed): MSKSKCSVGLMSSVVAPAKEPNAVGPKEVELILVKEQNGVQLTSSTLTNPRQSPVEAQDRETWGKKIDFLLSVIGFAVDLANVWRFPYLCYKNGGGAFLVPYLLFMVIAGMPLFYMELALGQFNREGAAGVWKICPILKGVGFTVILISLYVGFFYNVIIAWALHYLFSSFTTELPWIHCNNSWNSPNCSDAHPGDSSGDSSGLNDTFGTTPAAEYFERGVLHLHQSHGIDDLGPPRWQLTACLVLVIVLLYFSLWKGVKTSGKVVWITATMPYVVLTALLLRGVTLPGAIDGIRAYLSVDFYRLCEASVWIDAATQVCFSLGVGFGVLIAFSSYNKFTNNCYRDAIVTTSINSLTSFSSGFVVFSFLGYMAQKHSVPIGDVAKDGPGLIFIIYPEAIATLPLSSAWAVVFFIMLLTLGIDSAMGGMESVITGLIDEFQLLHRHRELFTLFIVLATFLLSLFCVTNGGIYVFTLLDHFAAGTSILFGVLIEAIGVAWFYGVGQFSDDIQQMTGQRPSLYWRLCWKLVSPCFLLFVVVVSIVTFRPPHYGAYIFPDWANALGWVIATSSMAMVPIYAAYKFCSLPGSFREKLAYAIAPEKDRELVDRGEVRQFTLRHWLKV
Sequence of Tachykinin NK1 (P25103 whole entry): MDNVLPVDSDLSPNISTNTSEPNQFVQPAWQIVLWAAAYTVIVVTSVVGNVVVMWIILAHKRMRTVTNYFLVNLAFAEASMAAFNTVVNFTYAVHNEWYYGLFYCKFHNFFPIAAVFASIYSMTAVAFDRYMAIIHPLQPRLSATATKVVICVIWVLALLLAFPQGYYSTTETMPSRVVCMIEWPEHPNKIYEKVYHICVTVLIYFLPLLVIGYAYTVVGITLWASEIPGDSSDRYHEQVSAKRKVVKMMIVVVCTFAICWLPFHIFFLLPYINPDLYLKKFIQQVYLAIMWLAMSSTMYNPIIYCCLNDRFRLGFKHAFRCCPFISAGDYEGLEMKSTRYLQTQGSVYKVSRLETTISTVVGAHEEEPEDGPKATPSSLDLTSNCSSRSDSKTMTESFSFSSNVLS
Sequence of Serotonin transporter (SERT) (P31645 whole entry, species assumed): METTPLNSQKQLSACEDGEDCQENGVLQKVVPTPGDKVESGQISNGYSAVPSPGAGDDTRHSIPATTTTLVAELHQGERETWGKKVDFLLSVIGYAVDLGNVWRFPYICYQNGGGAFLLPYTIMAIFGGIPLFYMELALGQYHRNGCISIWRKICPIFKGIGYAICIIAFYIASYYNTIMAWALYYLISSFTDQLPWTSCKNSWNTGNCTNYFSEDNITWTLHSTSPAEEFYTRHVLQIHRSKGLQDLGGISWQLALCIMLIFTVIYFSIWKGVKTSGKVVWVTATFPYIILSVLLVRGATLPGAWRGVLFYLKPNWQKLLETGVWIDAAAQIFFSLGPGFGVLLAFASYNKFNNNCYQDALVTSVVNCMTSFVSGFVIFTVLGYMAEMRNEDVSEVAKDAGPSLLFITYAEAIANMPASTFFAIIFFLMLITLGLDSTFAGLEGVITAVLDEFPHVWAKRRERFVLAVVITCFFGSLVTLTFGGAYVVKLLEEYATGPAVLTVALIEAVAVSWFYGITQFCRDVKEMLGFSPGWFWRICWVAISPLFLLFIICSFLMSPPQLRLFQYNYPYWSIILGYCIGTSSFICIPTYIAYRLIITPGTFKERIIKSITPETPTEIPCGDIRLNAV
Sequence of dopamine-2 receptor (D2R) (P14416 whole entry): as the sequence (P14416 whole entry) above

binding [1]: no observed binding
nH (Hill coefficient) [2]: 0.98
nH (Hill coefficient) [3]: 0.76
binding against the dopamine D2 receptors [4]: negligible or no binding
nH (Hill coefficient) [4]: 0.94
nH (Hill coefficient) [5]: 0.90
binding [6]: no observed binding
nH (Hill coefficient) [7]: 0.85
nH (Hill coefficient) [8]: 0.62
binding [9]: no observed binding
binding [10]: no observed binding
nH (Hill coefficient) [11]: 0.72
nH (Hill coefficient) [12]: 0.81
nH (Hill coefficient) [13]: 1.02
binding [14]: no observed binding
nH (Hill coefficient) [15]: 0.87
affinity for S1R compared to Dopamine D2R ([15]; S1R vs D2R): approximately 100 fold
nH (Hill coefficient) [16]: 0.80
binding [17]: no observed binding
binding [18]: low-affinity binding
D2R blockage [20]: 3%
difference in drug-induced S1R occupancy between HV and HD patients ([21]; 90 mg): no differences
S1R occupancy ([21]; healthy volunteers, single oral dose 45 mg, 2 h after dosing): ~100%
S1R occupancy ([21]; healthy volunteers, single oral dose 90 mg, 2 h after dosing): ~100%
S1R occupancy ([21]; single oral dose 1 mg): approximately 40%
occupancy of the dopamine receptors (DARs) (estimated) [23]: minimal occupancy
receptor occupancy at 45 mg [26]: ~3%
receptor occupancy at 90 mg [26]: ~30%
receptor occupancy at 150 mg [26]: > 40%
SMILES: CCCN1CCC(c2cccc(S(C)(=O)=O)c2)CC1 [pridopidine, 4-(3-(methylsulfonyl)phenyl)-1-propylpiperidine]
% D2R occupancy ([19]; 7 mg/kg PO): <15%
% D2R occupancy ([19]; 15 mg/kg PO): 15%
% D2R occupancy ([19]; 20 mg/kg PO): 25%
% D2R occupancy ([19]; 30 mg/kg PO): 40%
occupancy of low affinity dopamine receptors (expected) ([19]; high, effective dose (30 mg/kg, or 20 mg/kg in study 1)): about 40%
occupancy of low affinity dopamine receptors (expected) ([19]; low, ineffective doses (7 and 15 mg/kg (study 1), 20 mg/kg in study 2)): about 10%
D2R-occupancy ([19]; macaques, effective doses (20 to 30 mg/kg)): 25-40%
anti-parkinsonian benefit of L-DOPA [22]: does not affect the anti-parkinsonian benefit of L-DOPA
bad quality on-time evoked by levodopa [22]: improves the bad quality on-time
symptoms of dyskinesia [22]: effective in improving symptoms of dyskinesia
symptoms of dyskinesia [24]: effective (provides at least an additive effect or more than an additive effect)
symptoms of DIMD [25]: effective (provides at least an additive effect or more than an additive effect)
L-DOPA-induced sensitization of contraversive-rotation [27]: decreased
anti-parkinsonian benefit of L-DOPA [27]: no decrease
motor function, UHDRS Total Motor Score (TMS) [28]: significantly improved motor function
difference in TFC score decline vs placebo ([29]; 45 mg bid, 52 weeks, nominal p=0.003): 0.87 (95% confidence interval: 0.29-1.45)
TMS change from baseline vs placebo ([29]; 45 mg bid, weeks 26 or 52): trend towards improvement
TMS change from baseline vs placebo ([29]; 112.5 mg bid, 52 weeks): no improvement
TFC decline ([29]; high dose (>90 mg bid)): failed to show improvement
TMS efficacy compared to placebo or the 45 mg bid dose ([29]; high doses (≥67.5 bid)): none of the high doses of pridopidine (≥67.5 bid) showed improved efficacy
